Source: patent US11697667B2, “Salts and polymorphs of cethromycin for the treatment of disease” (AliquantumRx, Inc., priority 2019, dated 2023)

Legend:
malaria = test: Mouse malaria blood stage high parasitemia parasite killing model; format: in vivo, mice
Text: Additionally or alternatively, mouse malaria blood stage activity may be tested in a high parasitemia parasite killing model (n=5 mice/dose) to assess rate of killing and minimal dose and duration for cure as disclosed above and/or according to methods known in the art. Quantifiable endpoints may include measured activity against malaria.

[1] = tested on: malaria (infective sporozoites); test: Liver stage activity in murine malaria model; format: in vivo, mice
Text: Quantifiable endpoints may include measured activity against malaria.

Question: With `CCC1OC(=O)C(C)C(=O)C(C)C(OC2OC(C)CC(NC)C2O)C(C)(OCC=Cc2cnc3ccccc3c2)CC(C)C(=O)C(C)C2NC(=O)OC12C` (centres unmarked) [M1 metabolite, N-desmethyl cethromycin] as the compound, how does the “Blood stage activity relative to the activity of cethromycin chloride” value (malaria) read?
Answer: less than 30%

Question: What about the “Liver stage activity relative to the activity of cethromycin chloride” value [1] of the same compound?
Answer: less than 30%
